In patent publication US20070142345A1, “Steroids for cancer treatment” (priority 2004, published 2007):

Assays:
[1] = tested on: ICR derived immature female mice; assay: In vivo estrogenic agonism, uterine wet weight; conditions: 10 mg/kg s.c., three consecutive days, uterus wet weight 24 h after final dose
Method: In Vivo Estrogenic Agonism (MDS PharmaServices)
Compounds were administered s.c. (10 mg/kg) for three consecutive days to a group of 5 ICR derived immature female mice weighing approx. 13 g. The animals were sacrificed 24 h after the final dose and wet weight of the uterus was measured. A 50% or greater increase in the uterine weight relative to the vehicle control group indicates possible estrogen agonist activity.

hER-α = target: T1, hER-α (Homo sapiens, UniProt P03372); assay: In vitro binding affinity to the estrogen receptor-α, displacement assay with 0.5 nM 3H-estradiol; conditions: hER-α recombinant, insect Sf cells, 0.5 nM 3H-estradiol radioligand, tested 0.03-10.0 nM; for IC50: read-out: ERα-aff IC50; for Ki: read-out: ERα-aff Ki
T1 construct: purchased MDS PharmaServices (contract assay); host or cells: insect Sf cells
T1 sequence (P03372 1-595): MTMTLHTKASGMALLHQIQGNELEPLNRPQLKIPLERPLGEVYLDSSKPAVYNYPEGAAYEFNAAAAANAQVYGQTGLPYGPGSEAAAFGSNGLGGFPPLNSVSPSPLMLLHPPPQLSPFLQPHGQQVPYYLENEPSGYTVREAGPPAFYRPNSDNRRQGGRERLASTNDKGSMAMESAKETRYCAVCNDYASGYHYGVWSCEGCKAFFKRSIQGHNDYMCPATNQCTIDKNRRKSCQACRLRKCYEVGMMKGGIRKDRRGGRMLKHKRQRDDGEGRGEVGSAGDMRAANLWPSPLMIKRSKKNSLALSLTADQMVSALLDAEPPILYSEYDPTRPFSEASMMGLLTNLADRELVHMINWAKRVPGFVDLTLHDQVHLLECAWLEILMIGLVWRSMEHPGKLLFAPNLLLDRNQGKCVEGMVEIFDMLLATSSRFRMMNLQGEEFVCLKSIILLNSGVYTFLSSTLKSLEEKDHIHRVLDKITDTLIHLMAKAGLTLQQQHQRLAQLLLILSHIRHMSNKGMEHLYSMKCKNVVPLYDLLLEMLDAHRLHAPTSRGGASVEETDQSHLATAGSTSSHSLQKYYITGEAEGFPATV
Method: In Vitro Binding Affinty to the Estrogen Receptor-α (MDS PharmaServices)
Binding affinity was determined in a displacement assay using hER-α (recombinant, insect Sf cells) with 0.5 nM ^3H-estradiol as radioligand. The compounds were tested in concentrations from 0.03-10.0 nM. Results are given as IC50 and Ki.

[2] = tested on: ICR derived immature female mice; assay: In vivo estrogenic antagonism, estradiol-benzoate challenge, uterine wet weight; set-up: unit: %; conditions: 10 mg/kg s.c., three consecutive days, estradiol-benzoate 3 μg/kg s.c. challenge, uterus wet weight 24 h after final dose
Method: In Vivo Estrogenic Antagonism (MDS PharmaServices)
Compounds were administered s.c. (10 mg/kg) for three consecutive days to a group of 5 ICR derived immature female mice weighing approx. 13 g and challenged with estradiol-benzoate (3 μg/kg s.c.) immediately after each daily dosing. The animals were sacrificed 24 h after the final dose and wet weight of the uterus was measured. A 50% or greater reduction in the estradiol-induced increase in uterine weight indicates possible estrogen antagonist activity.

Compound | IC50 (hER-α) | Ki (hER-α) | In vivo agonism (increase in uterine weight relative to vehicle control) [1] | in vivo antagonism (reduction in the estradiol-induced increase in uterine weight) [2]
C=C1[C@H](O)C[C@H]2[C@@H]3[C@H](CCCCCCCCCCC(=O)N(C)CCCC)Cc4cc(O)ccc4[C@H]3CC[C@]12C [Ex 1, 11-(3,16α-Dihydroxy-17-methylene-estra-1,3,5(10)-triene-7α-yl)-undecanoic acid n-butyl-methyl-amide] | 3.5 nM | 1 nM | 1% | 61
CCCCN(C)C(=O)CCCCCCCCCC[C@@H]1Cc2cc(O)ccc2C2CC[C@@]3(C)C(C[C@@H](O)C34CC4)C21 (stereo partly drawn) [Ex 4, 11-(17-(1,2-Ethylene)-3,16α-dihydroxy-estra-1,3,5(10)-triene-7α-yl)-undecanoic acid n-butyl-methyl-amide] | 2.48 nM | 0.71 nM | 4% | 58
C=C1[C@H](O)CC2C3C(CC[C@]12C)c1ccc(O)cc1C[C@H]3CCCCCCCCC[S+]([O-])CCCC(F)(F)C(F)(F)F (some centres unmarked) [Ex 5] | 1.19 nM | 0.34 nM | 8% | 55
CO[C@H]1c2cc(O)ccc2C2CC[C@@]3(C)C(C[C@@H](O)C34CC4)C2[C@@H]1CCCCCCCCC[S+]([O-])CCCC(F)(F)C(F)(F)F (some centres unmarked) [Ex 8] | 10.2 nM | 2.91 nM | – | –
C[C@]12CCC3c4ccc(O)cc4C(=O)[C@@H](CCCCCCCCC[S+]([O-])CCCC(F)(F)C(F)(F)F)C3C1C[C@@H](O)C21CC1 (stereo partly drawn) [Ex 10, 17-(1,2-Ethylene)-3,16α-dihydroxy-6-keto-7α-[9-[(4,4,5,5,5-pentafluoro-n-pentyl)sulfinyl]nonyl]-estra-1,3,5(10)-triene] | 4.75 nM | 1.36 nM | – | –
CO[C@@H]1c2cc(O)ccc2C2CC[C@@]3(C)C(C[C@@H](O)C34CC4)C2[C@@H]1CCCCCCCCC[S+]([O-])CCCC(F)(F)C(F)(F)F (stereo partly drawn) [Ex 14, 17-(1,2-Ethylene)-3,16α-dihydroxy-6α-methoxy-7α-[9-[(4,4,5,5,5-pentafluoro-n-pentyl)sulfinyl]nonyl]-estra-1,3,5(10)-triene] | > 10 nM | > 10 nM | – | –
CCCCN(C)C(=O)CCCCCCCCCC[C@@H]1Cc2cc(O)ccc2[C@H]2CC[C@]3(C)[C@@H](O)CC[C@H]3[C@H]12 [ICI 164, 384, 11-(3,17β-Dihydroxy-estra-1,3,5(10)-triene-7α-yl)-undecanoic acid n-butyl-methyl-amide, reference compound] | – | – | – | 66
CC12CCC3c4ccc(O)cc4CC(CCCCCCCCC[S+]([O-])CCCC(F)(F)C(F)(F)F)C3C1CCC2O (centres unmarked) [ICI 182, 780, reference compound] | – | – | – | 66

Now from value to compound, other results behind:

IC50 (hER-α) | Ki (hER-α) | Compound | In vivo agonism (increase in uterine weight relative to vehicle control) [1] | in vivo antagonism (reduction in the estradiol-induced increase in uterine weight) [2]
1.59 nM | 0.45 nM | C[C@]12CCC3c4ccc(O)cc4[C@@H](O)[C@@H](CCCCCCCCC[S+]([O-])CCCC(F)(F)C(F)(F)F)C3C1C[C@@H](O)C21CC1 (stereo partly drawn) [Ex 12, 17-(1,2-Ethylene)-3,6α,16α-trihydroxy-7α-[9-[(4,4,5,5,5-pentafluoro-n-pentyl)sulfinyl]nonyl]-1,3,5(10)-triene] | – | –
1.04 nM | 0.3 nM | C[C@]12CCC3c4ccc(O)cc4[C@H](F)[C@@H](CCCCCCCCC[S+]([O-])CCCC(F)(F)C(F)(F)F)C3C1C[C@@H](O)C21CC1 (stereo partly drawn) [Ex 16, 17-(1,2-Ethylene)-6β-fluoro-3,16α-dihydroxy-7α-[9-[(4,4,5,5,5-pentafluoro-n-pentyl)sulfinyl]nonyl]-estra-1,3,5(10)-triene] | – | –
0.92 nM | 0.26 nM | C[C@]12CCC3c4ccc(O)cc4C[C@@H](CCCCCCCCC[S+]([O-])CCCC(F)(F)C(F)(F)F)C3C1C[C@@H](O)C21CC1 (stereo partly drawn) [Ex 18, 17-(1,2-Ethylene)-3,16α-dihydroxy-7α-[9-[(4,4,5,5,5-pentafluoro-n-pentyl)sulfinyl]nonyl]-estra-1,3,5(10)-triene] | – | –
